Holding throughout (type): cell-based
For test [1], the system named is DU145 cells (prostate). Briefly: Cytotoxicity, WST-1 cell viability test, DU145. The conditions noted are these: Homo sapiens, DU-145, after 96 hours of treatment, read-out: Concentration decreasing by 50% the cell viability. As to the method: (§1) Eight cell lines originating from different types of cancer were used: PC3 and DU145 (prostate), HT-29 and LS-174T (colon), Hep G2 (liver), MCF-7 (breast), MIA PaCa-2 and PANC-1 (pancreas).
(§2) The cells are cultured in the specific culture medium described in Table II, at 37° C., 5% CO2, according to the operating procedures that are well known to the person skilled in the art.
(§3) After thawing and amplification of the cancer cells in the appropriate culture medium (described in 1.2.), 96-well plates are inoculated with these cells and incubated or not incubated (controls) in their respective culture medium, in the presence of the compounds to be tested at 10, 50, 100, 250 and 500 μM.
(§4) After 96 h of incubation, each 96-well plate is analyzed in order to measure the viability of the cells using a colorimetric test with WST-1.
In general terms: Formazan colour is commonly taken as a measure of viable cells.

Test [2] relates to HT-29 cells (colon). In words: Cytotoxicity, WST-1 cell viability test, HT-29. The conditions noted are these: Homo sapiens, after 96 hours of treatment, read-out: Concentration decreasing by 50% the cell viability. The method, then: as §1, §2, §3, §4
For test [3], the system named is LS174T cells (colon). In words: Cytotoxicity, WST-1 cell viability test, LS174T. The conditions noted are these: Homo sapiens, after 96 hours of treatment, read-out: Concentration decreasing by 50% the cell viability. As to the method:
as §1, §2, §3, §4

The subject of test [4] is PC3 cells (prostate). Briefly: Cytotoxicity, WST-1 cell viability test, PC3. The conditions noted are these: Homo sapiens, PC-3, after 96 hours of treatment, read-out: Concentration decreasing by 50% the cell viability. The method, then: as §1, §2, §3, §4
Test [5] relates to PANC-1 cells (pancreas). Briefly: Cytotoxicity, WST-1 cell viability test, PANC-1. The conditions noted are these: Homo sapiens, after 96 hours of treatment, read-out: Concentration decreasing by 50% the cell viability. As to the method: as §1, §2, §3, §4
In test [6] the test system is MIA PaCa-2 cells (pancreas). Briefly: Cytotoxicity, WST-1 cell viability test, MIA PaCa-2. The conditions noted are these: Homo sapiens, after 96 hours of treatment, read-out: Concentration decreasing by 50% the cell viability. The method, then:
as §1, §2, §3, §4

For test [7], the system named is Hep G2 cells (liver). In words: Cytotoxicity, WST-1 cell viability test, Hep G2. The conditions noted are these: Homo sapiens, HepG2, after 96 hours of treatment, read-out: Concentration decreasing by 50% the cell viability. The method, then:
as §1, §2, §3, §4

Test [8] relates to MCF-7 cells (breast). Briefly: Cytotoxicity, WST-1 cell viability test, MCF-7. The conditions noted are these: Homo sapiens, MCF7, after 96 hours of treatment, read-out: Concentration decreasing by 50% the cell viability. As to the method:
as §1, §2, §3, §4

The results in this text go back to patent US10308602B2, “Organoselenium compounds, method for producing same, and pharmaceutical uses thereof in particular as antitumor agents” (TETRAHEDRON, priority 2014, dated 2019).

The structures appear in SMILES notation. pIC50: −log10 of the molar value.

For `C[Se]CC(O)C(=O)O` (stereo not shown) [Compound 10, 2-hydroxy-3-(methylseleno)propanoic acid], the pIC50 is 3.41 in test [1], 3.48 in test [2] and 3.37 in test [3].

As for `CCCCCCCCCCCC(=O)OC(C[Se]C)C(=O)O` (stereo not shown) [Compound 38, 2-(dodecanoyloxy)-3-(methylseleno)propanoic acid], the pIC50 was 3.70 in test [4]; 3.77 in test [1]; 3.60 in test [5]; 3.51 in test [6]; 3.78 in test [2]; 3.95 in test [3]. In addition, the pIC50 in test [7] is 3.58; in test [8], 3.67.

With `CCOC(=O)C(O)C[Se]C` (stereo not shown) [Compound 4, ethyl ester of 2-hydroxy-3-(methylseleno)propanoic acid], the pIC50 in test [1] is 3.32; in test [3], 3.47.
